Measurements: article PMC10620772, “Design, synthesis, and biological evaluation of new pyrimidine-5-carbonitrile derivatives as novel anti-cancer, dual EGFR^WT/COX-2 inhibitors with docking studies” (RSC Advances, 2023)

Key:
Type in all cases: cell-based, human
COLO 205 = test: NCI60 antitumor screening; conditions: Homo sapiens; 10 μM single dose; COLO 205 (colon cancer); read-out: growth inhibition percent (GI%)
U251 = test: NCI60 antitumor screening; conditions: Homo sapiens, U-251; 10 μM single dose; U251 (CNS cancer); read-out: growth inhibition percent (GI%)
SNB-19 = test: NCI60 antitumor screening; conditions: Homo sapiens; 10 μM single dose; SNB-19 (CNS cancer); read-out: growth inhibition percent (GI%)
NCI/ADR-RES = test: NCI60 antitumor screening; conditions: Homo sapiens; 10 μM single dose; NCI/ADR-RES (ovarian cancer); read-out: growth inhibition percent (GI%)
SR = test: NCI60 antitumor screening; conditions: Homo sapiens; 10 μM single dose; SR (leukaemia); read-out: growth inhibition percent (GI%)
EKVX = test: NCI60 antitumor screening; conditions: Homo sapiens; 10 μM single dose; EKVX (non-small cell lung cancer); read-out: growth inhibition percent (GI%)
OVCAR-4 = test: NCI60 antitumor screening; conditions: Homo sapiens; 10 μM single dose; OVCAR-4 (ovarian cancer); read-out: growth inhibition percent (GI%)
SK-MEL-2 = test: NCI60 antitumor screening; conditions: Homo sapiens; 10 μM single dose; SK-MEL-2 (melanoma); read-out: growth inhibition percent (GI%)
HS 578T = test: NCI60 antitumor screening; conditions: Homo sapiens; 10 μM single dose; HS 578T (breast cancer); read-out: growth inhibition percent (GI%)
NCI60 cell lines panel = test: NCI60 antitumor screening, full panel
Method in brief: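 Percent growth inhibition (GI%) was recorded for each of the NCI60 lines, spanning leukaemia, lung, colon, CNS, melanoma, ovarian, renal, prostate and breast cancers, after exposure to compounds at one concentration, 10 μM.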

SF-268 = test: NCI60 antitumor screening; conditions: Homo sapiens; 10 μM single dose; SF-268 (CNS cancer); read-out: growth inhibition percent (GI%)
MCF7 = test: NCI60 antitumor screening; conditions: Homo sapiens; 10 μM single dose; MCF7 (breast cancer); read-out: growth inhibition percent (GI%)
ACHN = test: NCI60 antitumor screening; conditions: Homo sapiens; 10 μM single dose; ACHN (renal cancer); read-out: growth inhibition percent (GI%)
MOLT-4 = test: NCI60 antitumor screening; conditions: Homo sapiens; 10 μM single dose; MOLT-4 (leukaemia); read-out: growth inhibition percent (GI%)
SF-295 = test: NCI60 antitumor screening; conditions: Homo sapiens; 10 μM single dose; SF-295 (CNS cancer); read-out: growth inhibition percent (GI%)
SNB-75 = test: NCI60 antitumor screening; conditions: Homo sapiens; 10 μM single dose; SNB-75 (CNS cancer); read-out: growth inhibition percent (GI%)
MDA-MB-231/ATCC = test: NCI60 antitumor screening; conditions: Homo sapiens; 10 μM single dose; MDA-MB-231/ATCC (breast cancer); read-out: growth inhibition percent (GI%)
KM12 = test: NCI60 antitumor screening; conditions: Homo sapiens; 10 μM single dose; KM12 (colon cancer); read-out: growth inhibition percent (GI%)
SK-OV-3 = test: NCI60 antitumor screening; conditions: Homo sapiens; 10 μM single dose; SK-OV-3 (ovarian cancer); read-out: growth inhibition percent (GI%)
HCC-2998 = test: NCI60 antitumor screening; conditions: Homo sapiens; 10 μM single dose; HCC-2998 (colon cancer); read-out: growth inhibition percent (GI%)
BT-549 = test: NCI60 antitumor screening; conditions: Homo sapiens; 10 μM single dose; BT-549 (breast cancer); read-out: growth inhibition percent (GI%)
NCI-H460 = test: NCI60 antitumor screening; conditions: Homo sapiens; 10 μM single dose; NCI-H460 (non-small cell lung cancer); read-out: growth inhibition percent (GI%)
OVCAR-5 = test: NCI60 antitumor screening; conditions: Homo sapiens; 10 μM single dose; OVCAR-5 (ovarian cancer); read-out: growth inhibition percent (GI%)

SMILES: CN1CCN(c2nc(SCc3ccc([N+](=O)[O-])cc3)nc(-c3ccc(F)cc3)c2C#N)CC1 [4k, 4-(4-Fluorophenyl)-6-(4-methylpiperazin-1-yl)-2-((4-nitrobenzyl)thio)pyrimidine-5-carbonitrile]
- inhibition at 10 µM (COLO 205): < 10%
- inhibition at 10 µM (U251): < 10%
- inhibition at 10 µM (SNB-19): 29.6%
- inhibition at 10 µM (NCI/ADR-RES): 25.1%
- inhibition at 10 µM (SR): < 10%
- inhibition at 10 µM (EKVX): 22.4%
- inhibition at 10 µM (OVCAR-4): < 10%
- inhibition at 10 µM (SK-MEL-2): < 10%
- inhibition at 10 µM (HS 578T): 42.6%
- One-dose activity over the NCI60 panel (NCI60 cell lines panel; 10 μM): moderate activity against numerous cell lines
- inhibition at 10 µM (NCI60 cell lines panel; Homo sapiens, 10 μM single dose, mean over NCI60 cell lines, read-out: Mean growth inhibition percent (GI%)): 17.5%
- inhibition at 10 µM (SF-268): < 10%
- inhibition at 10 µM (MCF7): 17.6%
- inhibition at 10 µM (ACHN): 31.5%
- inhibition at 10 µM (MOLT-4): 17.6%
- inhibition at 10 µM (SF-295): 29.3%
- inhibition at 10 µM (SNB-75): 25.7%
- inhibition at 10 µM (MDA-MB-231/ATCC): 35.1%
- inhibition at 10 µM (KM12): < 10%
- inhibition at 10 µM (SK-OV-3): 20.9%
- inhibition at 10 µM (HCC-2998): < 10%
- inhibition at 10 µM (BT-549): 46.5%
- inhibition at 10 µM (NCI-H460): < 10%
- inhibition at 10 µM (OVCAR-5): 16.8%
